Tested on: human endometrial cancer cell line AN3CA xenograft
Assay: Antitumor effect in AN3CA subcutaneous xenograft model in mice
Format: in vivo
Conditions: oral, once a day for 14 days, tumor volume last day
Description: Human endometrial cancer cell line AN3CA (ATCC Number HTB-111), which had been cultured in an RPM-1640 medium containing 10% FBS, and penicillin and streptomycin, were adjusted to a concentration of 1×10^8 cells/mL with Hanks' Balanced Salt Solution (GIBCO #24020) to prepare a cell suspension, and the suspension was mixed with […] (BD Biosciences, Cat#354234) in a ratio of 1:1 to prepare a cell suspension in a concentration of 5×10^7 cells/ml. The cell suspension was inoculated in a volume of […] into a subcutaneous part of a right flank of nude mice, 7 weeks of age (BALB/cAJcl-nu/nu, female, Clea Japan Inc.). Eleven days after cell inoculation, the shortest diameter and the longest diameter of a tumor in each mouse were measured by using an electronic digital caliper (Digimatic™ caliper, Mitutoyo Corporation), so as to calculate the volume of the tumor in accordance with the following calculation formula: Tumor volume(mm^3)=Longest diameter(mm)×Shortest diameter(mm)×Shortest diameter(mm)/2
On the basis of the volumes of tumors obtained on the first day of administration, the nude mice were grouped such that averages of the tumor volumes were substantially equal among the groups. Each test substance was dissolved in DMSO, Tween 80 was added thereto to prepare a solution in a 10-fold concentration and the thus prepared solution was stored at the freezer before use. Immediately before the administration, the stock solution was diluted with a 5% glucose solution to obtain a final administration solution (in which a ratio in % among DMSO, Tween 80 and the 5% glucose solution was 3.5:6.5:90). Each evaluation sample was orally administered to test substance administration group at a volume of 0.4 mL per 20 g of body weight once a day continuously for 14 days, and in a control group, an administration solvent was orally administered under the same conditions. Incidentally, the experiment was conducted on groups each consisting of 5 mice.
With respect to each of the control group and test substance administration group, a ratio of the weight measured on the final day to the weight measured on the first day (relative body weight: RBW) was calculated. If a ratio of the RBW of the test substance administration group/the RBW of the control group is 0.9 or more, the corresponding test substance administration group was defined as a well-tolerated. In the test substance administration group thus defined as well-tolerated, a ratio of the tumor volume of the test substance-dosing group to the tumor volume of the control group obtained on the last day (T/C) (%) was calculated, and shown in Table 26.

Structure (SMILES): CNC(=O)n1ccc2cc(Oc3ccnc(NC(=O)c4ccc(C5CCN(CCO)CC5)cc4)c3)c(OCCOC)cc21 [Example 22, 5-((2-(4-(1-(2-Hydroxyethyl)piperidin-4-yl)benzamide)pyridin-4-yl)oxy)-6-(2-methoxyethoxy)-N-methyl-1H-indole-1-carboxamide]
- T/C (%) (6.25 mg/kg): 29%
- T/C (%) (12.5 mg/kg): 11%
- T/C (%) (25 mg/kg): 4%
- T/C (%) (50 mg/kg): 2%

Source: patent US8933099B2, “Monocyclic pyridine derivative” (Eisai R&D Management Co., Ltd., priority 2013, dated 2015)
